According to patent publication US20260364215A1, “Radiopharmaceutical Compositions Targeting Ephrin Type-A Receptor 2 and Uses Thereof” (PeptiDream Inc., priority 2022, published 2026):
Numbered stars: 1 amine (or outer) side, 2 acyl side, 3 side chain; on linkers, the order of the positions; unused ones are H or OH. Bridge positions count the residues as written; N and C are the ends. Square brackets hold non-standard residues; d marks the D form. Side chains are listed from the residue outwards. Peptide text beside a SMILES is read from it. * marks the point of attachment. DOTA(Lu) = O=C1CN2CCN3CCN(CC(=O)*)CCN(CC2)CC(=O)[O][Lu]([O]1)[O]C(=O)C3; NH(1-deoxy-D-glucityl) = OC[C@@H](O)[C@@H](O)[C@H](O)[C@@H](O)CN*; DOTA = O=C(O)CN1CCN(CC(=O)O)CCN(CC(=O)*)CCN(CC(=O)O)CC1; Trp(1-Me,7-Cl) = Cn1cc(C[C@H](N)C(=O)O)c2cccc(Cl)c21; dPhe(3-CONH2) = NC(=O)c1cccc(C[C@@H](N)C(=O)O)c1; Piperazinyl(4-CH2COOH) = O=C(O)CN1CCN(*)CC1; Trp(1-Me) = Cn1cc(C[C@H](N)C(=O)O)c2ccccc21; PEG8 = NCCOCCOCCOCCOCCOCCOCCOCCOCCC(=O)O; NMe3Pal = CN[C@@H](Cc1cccnc1)C(=O)O; NMeF = CN[C@@H](Cc1ccccc1)C(=O)O; hCit = NC(=O)NCCCC[C@H](N)C(=O)O; Gly(cBu) = N[C@H](C(=O)O)C1CCC1; NMeE = CN[C@@H](CCC(=O)O)C(=O)O; Aad = N[C@@H](CCCC(=O)O)C(=O)O; NMeN = CN[C@@H](CC(N)=O)C(=O)O; PEG2 = NCCOCCOCCC(=O)O; CO = O=C([*:1])[*:2]; βAla = NCCC(=O)O

biological target: T1, Recombinant Human EphA2 Fc Protein (Homo sapiens, UniProt P29317); experiment: Interaction analysis (kinetics, KD) of peptides and conjugates against EphA2 by SPR, Biacore T200, single-cycle kinetics (Examples B15 and B22); format: binding; settings: not given
T1 construct: purchased Elabscience
T1 sequence (P29317 24-534 limits assumed): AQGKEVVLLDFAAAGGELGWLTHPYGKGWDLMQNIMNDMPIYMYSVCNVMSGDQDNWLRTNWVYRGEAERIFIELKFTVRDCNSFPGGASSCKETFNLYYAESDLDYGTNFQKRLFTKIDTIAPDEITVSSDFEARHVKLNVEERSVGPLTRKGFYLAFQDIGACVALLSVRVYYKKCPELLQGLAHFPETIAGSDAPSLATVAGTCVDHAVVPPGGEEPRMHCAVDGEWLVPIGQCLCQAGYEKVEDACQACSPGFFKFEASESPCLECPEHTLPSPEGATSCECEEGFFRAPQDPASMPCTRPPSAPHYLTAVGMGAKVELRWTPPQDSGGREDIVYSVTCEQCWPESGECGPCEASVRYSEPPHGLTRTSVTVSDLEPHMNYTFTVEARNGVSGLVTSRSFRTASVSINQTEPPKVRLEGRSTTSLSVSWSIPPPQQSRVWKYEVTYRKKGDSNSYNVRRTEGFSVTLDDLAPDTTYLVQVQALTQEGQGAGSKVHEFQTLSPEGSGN
Method: Example B15. Interaction Analysis by SPR was Performed Using Biacore (Cytiva)
SPR assay was performed using Biacore T200 (Cytiva).
The HBS-P+ buffer (10 mM HEPES (pH7.4), 150 mM NaCl, 0.05% (v/v) Surfactant P20) containing 1% DMSO was used as running buffer. Recombinant Human EphA2 Fc Protein (Fc tag, Elabscience) was captured by Human Antibody Capture kit (Cytiva). Peptide samples in DMSO were diluted with running buffer, and prepared five serial dilutions. Using these serial dilutions, kinetics of peptides against EphA2 was measured at a flow rate of […] at 25 °C. The method adopted for sample measurement was a single-cycle kinetics method. The analysis was conducted using the evaluation software 3.0 provided with Biacore T200. Kinetics fitting was done on the difference data obtained by subtracting the baseline data from sample measurement data. KD values were calculated based on the association rate constant (ka) and dissociation rate constant (kd).
Example B22: Interaction Analysis of Conjugates by SPR was Performed Using Biacore (Cytiva)
SPR assay was performed using Biacore T200 (Cytiva) according to Example B15.

| Structure (SMILES) | Kd [nM] |
| --- | --- |
| CC(C)C[C@@H]1NC(=O)[C@H](CC(N)=O)NC(=O)[C@H](Cc2cccnc2)N(C)C(=O)[C@@H](C)NC(=O)CSC[C@@H](C(=O)N[C@H](CCCCNC(=O)CN(C)C(=O)CN(C)C(=O)CN(C)C(=O)CN(C)C(=O)CN(C)C(=O)CN(C)C(=O)CN(C)C(=O)CN(C)C(=O)CN(C)C(=O)CN(C)C(=O)CCNC(=O)CN2CCN3CCN4CCN(CC2)CC(=O)[O][Lu]([O]C(=O)C3)[O]C(=O)C4)C(N)=O)NC(=O)[C@H](CCCC(N)=O)NC(=O)[C@H]([C@@H](C)O)NC(=O)[C@H](Cc2cn(C)c3ccccc23)NC(=O)[C@H](CCCCNC(=O)N2CCN(CC(=O)O)CC2)NC(=O)[C@H](Cc2cn(C)c3ccccc23)NC(=O)C(CCC(=O)O)N(C)C(=O)[C@H](CCCC(N)=O)NC1=O (some centres unmarked) [PDC_EphA2-00007196-C310] | < 1 |
| C[C@H]1NC(=O)CSC[C@@H](C(=O)N[C@H](CCCCNC(=O)CN2CCN3CCN4CCN(CC2)CC(=O)[O][Lu]([O]C(=O)C3)[O]C(=O)C4)C(N)=O)NC(=O)[C@H](CCCC(N)=O)NC(=O)[C@H]([C@@H](C)O)NC(=O)[C@H](Cc2cn(C)c3ccccc23)NC(=O)[C@H](CCC(=O)NC[C@H](O)[C@@H](O)[C@H](O)[C@H](O)CO)NC(=O)[C@H](Cc2cn(C)c3ccccc23)NC(=O)[C@H](Cc2cccnc2)N(C)C(=O)[C@H](CCCC(N)=O)NC(=O)[C@H](C2CCC2)NC(=O)[C@H](CC(N)=O)NC(=O)[C@H](Cc2ccccc2)N(C)C1=O [PDC_EphA2-00013704-C302] ({CH2CO}-[dA][NMeF]N[Gly(cBu)][Aad](NH2)[NMe3Pal][Trp(1-Me)]E(NH(1-deoxy-D-glucityl))[Trp(1-Me)]T[Aad](NH2)C[dK](DOTA(Lu))-NH2; thioether N-12) | < 1 |
| C[C@H]1NC(=O)CSC[C@@H](C(=O)N[C@H](CCCCNC(=O)CN2CCN3CCN4CCN(CC2)CC(=O)[O][Lu]([O]C(=O)C3)[O]C(=O)C4)C(N)=O)NC(=O)[C@H](CCCC(N)=O)NC(=O)[C@H]([C@@H](C)O)NC(=O)[C@H](Cc2cn(C)c3ccccc23)NC(=O)[C@H](CCC(=O)NC[C@H](O)[C@@H](O)[C@H](O)[C@H](O)CO)NC(=O)[C@H](Cc2cn(C)c3ccccc23)NC(=O)[C@H](Cc2cccnc2)N(C)C(=O)[C@H](CCCC(N)=O)NC(=O)[C@H](C2CCC2)NC(=O)[C@H](CC(N)=O)NC(=O)[C@H](Cc2cccnc2)N(C)C1=O [PDC_EphA2-00013705-C302] ({CH2CO}-[dA][NMe3Pal]N[Gly(cBu)][Aad](NH2)[NMe3Pal][Trp(1-Me)]E(NH(1-deoxy-D-glucityl))[Trp(1-Me)]T[Aad](NH2)C[dK](DOTA(Lu))-NH2; thioether N-12) | < 1 |

same assay, conditions: conjugates, Biacore T200 according to Example B15, Table B16; read-out: SPR Kd

| Structure (SMILES) | Kd [nM] |
| --- | --- |
| CC(C)C[C@@H]1NC(=O)[C@H](CC(N)=O)NC(=O)[C@H](Cc2ccccc2)N(C)C(=O)[C@@H](C)NC(=O)CSC[C@@H](C(=O)NCCC(=O)N[C@H](CCCCNC(=O)CCOCCOCCNC(=O)CCOCCOCCOCCOCCOCCOCCOCCOCCNC(=O)CN2CCN(CC(=O)O)CCN(CC(=O)O)CCN(CC(=O)O)CC2)C(N)=O)NC(=O)[C@H](CCC(=O)O)NC(=O)[C@H]([C@@H](C)O)NC(=O)[C@H](Cc2cn(C)c3ccccc23)NC(=O)[C@H](C(C)C)NC(=O)[C@H](Cc2cn(C)c3ccccc23)NC(=O)[C@H](Cc2ccccc2)N(C)C(=O)[C@H](CCCC(=O)O)NC1=O.[Lu+3] [PDC_EphA2-00001417-C304] ({CH2CO}-[dA][NMeF]NL[Aad][NMeF][Trp(1-Me)]V[Trp(1-Me)]TEC[βAla][dK]([PEG2-PEG8-DOTA])-NH2; thioether N-12) | 1 to 10 |
| CC(C)C[C@@H]1NC(=O)[C@H](CC(N)=O)NC(=O)[C@H](Cc2cccnc2)N(C)C(=O)[C@@H](C)NC(=O)CSC[C@@H](C(=O)NCCC(=O)N[C@H](CCCCNC(=O)CCOCCOCCNC(=O)CCOCCOCCOCCOCCOCCOCCOCCOCCNC(=O)CN2CCN(CC(=O)O)CCN(CC(=O)O)CCN(CC(=O)O)CC2)C(N)=O)NC(=O)[C@H](CCCC(N)=O)NC(=O)[C@H]([C@@H](C)O)NC(=O)[C@H](Cc2cn(C)c3ccccc23)NC(=O)[C@H](CCCCNC(=O)N2CCN(CC(=O)O)CC2)NC(=O)[C@H](Cc2cn(C)c3ccccc23)NC(=O)[C@H](CCC(=O)O)N(C)C(=O)[C@H](CCCC(N)=O)NC1=O.[Lu+3] [PDC_EphA2-00007196-C304] ({CH2CO}-[dA][NMe3Pal]NL[Aad](NH2)[NMeE][Trp(1-Me)]K([CO-Piperazinyl(4-CH2COOH)])[Trp(1-Me)]T[Aad](NH2)C[βAla][dK]([PEG2-PEG8-DOTA])-NH2; thioether N-12) | < 1 |
| CC(C)C[C@@H]1NC(=O)[C@H](CC(N)=O)NC(=O)[C@H](Cc2cccnc2)N(C)C(=O)[C@@H](C)NC(=O)CSC[C@@H](C(=O)NCCC(=O)N[C@H](CCCCNC(=O)CCOCCOCCNC(=O)CCOCCOCCOCCOCCOCCOCCOCCOCCNC(=O)CN2CCN(CC(=O)O)CCN(CC(=O)O)CCN(CC(=O)O)CC2)C(N)=O)NC(=O)[C@H](CCCC(N)=O)NC(=O)[C@H]([C@@H](C)O)NC(=O)[C@H](Cc2cn(C)c3ccccc23)NC(=O)[C@H](CCCCNC(=O)N2CCN(CC(=O)O)CC2)NC(=O)[C@H](Cc2cn(C)c3ccccc23)NC(=O)[C@H](Cc2ccccc2)N(C)C(=O)[C@H](CCCC(N)=O)NC1=O.[Lu+3] [PDC_EphA2-00008093-C304] ({CH2CO}-[dA][NMe3Pal]NL[Aad](NH2)[NMeF][Trp(1-Me)]K([CO-Piperazinyl(4-CH2COOH)])[Trp(1-Me)]T[Aad](NH2)C[βAla][dK]([PEG2-PEG8-DOTA])-NH2; thioether N-12) | < 1 |
| CC(C)C[C@@H]1NC(=O)[C@H](CC(N)=O)NC(=O)[C@H](Cc2cccnc2)N(C)C(=O)[C@@H](C)NC(=O)CSC[C@@H](C(=O)NCCC(=O)N[C@H](CCCCNC(=O)CCOCCOCCNC(=O)CCOCCOCCOCCOCCOCCOCCOCCOCCNC(=O)CN2CCN(CC(=O)O)CCN(CC(=O)O)CCN(CC(=O)O)CC2)C(N)=O)NC(=O)[C@H](CCCC(N)=O)NC(=O)[C@H]([C@@H](C)O)NC(=O)[C@H](Cc2cn(C)c3ccccc23)NC(=O)[C@H](CCCCNC(=O)N2CCN(CC(=O)O)CC2)NC(=O)[C@H](Cc2cn(C)c3ccccc23)NC(=O)[C@H](CCC(=O)O)N(C)C(=O)[C@H](CCCC(=O)O)NC1=O.[Lu+3] [PDC_EphA2-00008094-C304] ({CH2CO}-[dA][NMe3Pal]NL[Aad][NMeE][Trp(1-Me)]K([CO-Piperazinyl(4-CH2COOH)])[Trp(1-Me)]T[Aad](NH2)C[βAla][dK]([PEG2-PEG8-DOTA])-NH2; thioether N-12) | < 1 |
| C[C@H]1NC(=O)CSC[C@@H](C(=O)N[C@H](CCCCNC(=O)CN2CCN(CC(=O)O)CCN(CC(=O)O)CCN(CC(=O)O)CC2)C(N)=O)NC(=O)[C@H](CCCC(N)=O)NC(=O)[C@H]([C@@H](C)O)NC(=O)[C@H](Cc2cn(C)c3ccccc23)NC(=O)[C@H](CCC(=O)NC[C@H](O)[C@@H](O)[C@H](O)[C@H](O)CO)NC(=O)[C@H](Cc2cn(C)c3ccccc23)NC(=O)[C@H](CC(N)=O)N(C)C(=O)[C@H](CCCC(N)=O)NC(=O)[C@H](C2CCC2)NC(=O)[C@H](CC(N)=O)NC(=O)[C@H](Cc2ccccc2)N(C)C1=O.[Lu+3] [PDC_EphA2-00013703-C302] ({CH2CO}-[dA][NMeF]N[Gly(cBu)][Aad](NH2)[NMeN][Trp(1-Me)]E(NH(1-deoxy-D-glucityl))[Trp(1-Me)]T[Aad](NH2)C[dK](DOTA)-NH2; thioether N-12) | < 1 |
| C[C@@H](O)[C@@H]1NC(=O)[C@H](Cc2cn(C)c3ccccc23)NC(=O)[C@H](CCC(=O)NC[C@H](O)[C@@H](O)[C@H](O)[C@H](O)CO)NC(=O)[C@H](Cc2cn(C)c3c(Cl)cccc23)NC(=O)[C@H](Cc2cccnc2)N(C)C(=O)[C@H](CCCC(N)=O)NC(=O)[C@H](C2CCC2)NC(=O)[C@H](CC(N)=O)NC(=O)[C@H](Cc2cccnc2)N(C)C(=O)[C@@H](Cc2cccc(C(N)=O)c2)NC(=O)CSC[C@@H](C(=O)N[C@H](CCCCNC(=O)CN2CCN(CC(=O)O)CCN(CC(=O)O)CCN(CC(=O)O)CC2)C(N)=O)NC(=O)[C@H](CCCC(N)=O)NC1=O.[Lu+3] [PDC_EphA2-00019437-C302] ({CH2CO}-[dPhe(3-CONH2)][NMe3Pal]N[Gly(cBu)][Aad](NH2)[NMe3Pal][Trp(1-Me,7-Cl)]E(NH(1-deoxy-D-glucityl))[Trp(1-Me)]T[Aad](NH2)C[dK](DOTA)-NH2; thioether N-12) | < 1 |

same assay, conditions: peptides, Biacore T200, 25 °C, Table B12; read-out: SPR Kd

| Structure (SMILES) | Kd [nM] |
| --- | --- |
| CC(=O)NCCCC[C@@H](NC(=O)CCNC(=O)[C@@H]1CSCC(=O)N[C@H](C)C(=O)N(C)[C@@H](Cc2cccnc2)C(=O)N[C@@H](CC(N)=O)C(=O)N[C@@H](CC(C)C)C(=O)N[C@@H](CCCC(=O)O)C(=O)N(C)[C@@H](Cc2ccccc2)C(=O)N[C@@H](Cc2cn(C)c3ccccc23)C(=O)N[C@@H](C(C)C)C(=O)N[C@@H](Cc2cn(C)c3ccccc23)C(=O)N[C@@H]([C@@H](C)O)C(=O)N[C@@H](CCC(=O)O)C(=O)N1)C(N)=O [PDC_EphA2-00008083] ({CH2CO}-[dA][NMe3Pal]NL[Aad][NMeF][Trp(1-Me)]V[Trp(1-Me)]TEC[βAla][dK](Ac)-NH2; thioether N-12) | < 1 |
| C[C@@H](O)[C@@H]1NC(=O)[C@H](Cc2cn(C)c3ccccc23)NC(=O)[C@H](CCCCNC(N)=O)NC(=O)[C@H](Cc2cn(C)c3c(Cl)cccc23)NC(=O)[C@H](CC(N)=O)N(C)C(=O)[C@H](CCCC(N)=O)NC(=O)[C@H](C2CCC2)NC(=O)[C@H](CC(N)=O)NC(=O)[C@H](Cc2ccccc2)N(C)C(=O)[C@@H](Cc2cccc(C(N)=O)c2)NC(=O)CSC[C@@H](C(N)=O)NC(=O)[C@H](CCCC(N)=O)NC1=O [PDC_EphA2-00019426] ({CH2CO}-[dPhe(3-CONH2)][NMeF]N[Gly(cBu)][Aad](NH2)[NMeN][Trp(1-Me,7-Cl)][hCit][Trp(1-Me)]T[Aad](NH2)C-NH2; thioether N-12) | < 1 |
